Data on 34 molecules can be found in BindingDB's records for doi:10.1021/jm0510934 (Abbott Laboratories, 2006).

In one test the target is Growth hormone secretagogue receptor type 1 (Homo sapiens, UniProt Q92847). The test is described as follows: Receptor Binding Studies and GHS-R Ca2+ Flux Assay.
Chain of Growth hormone secretagogue receptor type 1 (Q92847 whole entry): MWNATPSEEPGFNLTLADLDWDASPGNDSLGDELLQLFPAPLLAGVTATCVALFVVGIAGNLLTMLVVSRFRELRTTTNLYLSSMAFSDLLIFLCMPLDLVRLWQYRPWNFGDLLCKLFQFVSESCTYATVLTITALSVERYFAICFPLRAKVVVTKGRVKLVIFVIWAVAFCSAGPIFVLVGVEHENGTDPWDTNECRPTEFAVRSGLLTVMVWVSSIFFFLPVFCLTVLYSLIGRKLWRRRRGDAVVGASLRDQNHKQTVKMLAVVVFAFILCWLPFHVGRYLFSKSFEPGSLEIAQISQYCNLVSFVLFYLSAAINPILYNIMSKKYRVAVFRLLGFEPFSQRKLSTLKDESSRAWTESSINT
Conditions: not given
On the procedure:
Specific binding was determined by incubation of membranes from GHS-R1a transfected CHO-K cells with 125I-His9-ghrelin in the presence of increasing concentrations of compounds to obtain IC50. Fluorescence emissions from 96 wells were measured simultaneously at excitation and emission wavelength of 488 and 520 nm, respectively. During this time, agonist responses in the absence of ghrelin, or the antagonist effects of compounds on ghrelin-stimulated calcium flux were recorded. Sigmoidal curves were fitted and EC50/IC50 values were determined by GraphPad Prism software.
For orientation: A change in cytosolic calcium serves as a functional read-out for many receptors and channels.
For orientation: IC50 means the midpoint of a concentration-inhibition curve. `N#Cc1ccc(COc2ccc(-c3c(N)nc(N)nc3COCc3ccccc3)cc2)cc1` [2,4-diaminopyrimidine derivative, 10b] registered an IC50 of 3610 nM.

With `CCc1nc(N)nc(N)c1-c1ccc(NCc2ccc(S(C)(=O)=O)cc2)c(Br)c1` [5-(3-bromo-4-{[(4-methanesulfonylphenyl)methyl]amino}phenyl)-6-ethylpyrimidine-2,4-diamine], the IC50 was 42 nM.

The molecule `CCc1nc(N)nc(N)c1-c1ccc(NCc2ccc(S(C)(=O)=O)cc2)c(Cl)c1` [5-(3-chloro-4-{[(4-methanesulfonylphenyl)methyl]amino}phenyl)-6-ethylpyrimidine-2,4-diamine] registered an IC50 of 11 nM.

`Nc1nc(N)c(-c2ccc(NCc3ccc(Cl)cc3)cc2)c(CCc2ccccc2)n1` [5-(4-{[(4-chlorophenyl)methyl]amino}phenyl)-6-(2-phenylethyl)pyrimidine-2,4-diamine] returned a half-inhibitory concentration (IC50) of 3350 nM.

As for `Nc1nc(N)c(-c2ccc(NCc3ccccc3)cc2)c(COCc2ccccc2)n1` [5-[4-(benzylamino)phenyl]-6-[(benzyloxy)methyl]pyrimidine-2,4-diamine], the concentration for half-maximal inhibition (IC50) was found to be 980 nM.

`COc1ccc(CNc2ccc(-c3c(N)nc(N)nc3COCc3ccccc3)cc2)cc1` [6-[(benzyloxy)methyl]-5-(4-{[(4-methoxyphenyl)methyl]amino}phenyl)pyrimidine-2,4-diamine] registered an IC50 of 90 nM.

`Nc1nc(N)c(-c2ccc(CNc3ccc([N+](=O)[O-])cc3)cc2)c(COCc2ccccc2)n1` [6-[(benzyloxy)methyl]-5-(4-{[(4-nitrophenyl)amino]methyl}phenyl)pyrimidine-2,4-diamine] had an IC50 of 16 nM.

`Nc1nc(N)c(-c2ccc(NCc3ccc(Cl)s3)cc2)c(COCc2ccccc2)n1` [6-[(benzyloxy)methyl]-5-(4-{[(5-chlorothiophen-2-yl)methyl]amino}phenyl)pyrimidine-2,4-diamine] showed an IC50 of 320 nM.

Molecule `Nc1nc(N)c(-c2ccc(NCc3csc(Cl)c3)cc2)c(COCc2ccccc2)n1` [6-[(benzyloxy)methyl]-5-(4-{[(5-chlorothiophen-3-yl)methyl]amino}phenyl)pyrimidine-2,4-diamine] registered a half-maximal inhibitory concentration (IC50) of 170 nM.

On to `CC(C)(C)CNc1ccc(-c2c(N)nc(N)nc2COCc2ccccc2)cc1` [6-[(benzyloxy)methyl]-5-{4-[(2,2-dimethylpropyl)amino]phenyl}pyrimidine-2,4-diamine], for which the concentration for half-maximal inhibition (IC50) turned out to be 700 nM.

As to `CS(=O)(=O)c1ccc(COc2ccc(-c3c(N)nc(N)nc3COCc3ccccc3)cc2)cc1` [6-[(benzyloxy)methyl]-5-{4-[(4-methanesulfonylphenyl)methoxy]phenyl}pyrimidine-2,4-diamine], the IC50 is 48 nM.

As for `Nc1nc(N)c(-c2ccc(NCc3ccncc3)cc2)c(COCc2ccccc2)n1` [6-[(benzyloxy)methyl]-5-{4-[(pyridin-4-ylmethyl)amino]phenyl}pyrimidine-2,4-diamine], the IC50 was found to be 86 nM.

The molecule `Nc1nc(N)c(-c2ccc(NCc3cnc4ccccc4c3)cc2)c(COCc2ccccc2)n1` [6-[(benzyloxy)methyl]-5-{4-[(quinolin-3-ylmethyl)amino]phenyl}pyrimidine-2,4-diamine] displayed an IC50 of 780 nM.

In the case of `CCc1nc(N)nc(N)c1-c1ccc(CNc2ccc(S(C)(=O)=O)cc2)cc1` [6-ethyl-5-(4-{[(4-methanesulfonylphenyl)amino]methyl}phenyl)pyrimidine-2,4-diamine], the 50% inhibitory concentration (IC50) is 120 nM.

Molecule `CCc1nc(N)nc(N)c1-c1ccc(N(C)Cc2ccc(S(C)(=O)=O)cc2)cc1` [6-ethyl-5-(4-{[(4-methanesulfonylphenyl)methyl](methyl)amino}phenyl)pyrimidine-2,4-diamine] yielded a 50% inhibitory concentration (IC50) of 32 nM.

With `CCc1nc(N)nc(N)c1-c1ccc(CNc2ccc([N+](=O)[O-])cc2)cc1` [6-ethyl-5-(4-{[(4-nitrophenyl)amino]methyl}phenyl)pyrimidine-2,4-diamine], the IC50 came to 190 nM.

The test is the same for the next values; noted with them: pH 7.4; 22 °C.
`CS(=O)(=O)c1ccc(CNc2ccc(-c3c(N)nc(N)nc3COCc3ccccc3)cc2)cc1` registered an IC50 of 7.2 nM.

`CC(=O)c1ccc(CNc2ccc(-c3c(N)nc(N)nc3COCc3ccccc3)cc2)cc1` [1-(4-{[(4-{2,4-diamino-6-[(benzyloxy)methyl]pyrimidin-5-yl}phenyl)amino]methyl}phenyl)ethan-1-one] came in with a half-maximal inhibitory concentration (IC50) of 10 nM.

`CCc1nc(N)nc(N)c1-c1ccc(NCc2ccc(C(C)O)cc2)cc1` (stereo unspecified) [1-[4-({[4-(2,4-diamino-6-ethylpyrimidin-5-yl)phenyl]amino}methyl)phenyl]ethan-1-ol]: the IC50 worked out at 110 nM.

The molecule `CCc1nc(N)nc(N)c1-c1ccc(NCc2ccc(C(C)=O)cc2)cc1` [1-[4-({[4-(2,4-diamino-6-ethylpyrimidin-5-yl)phenyl]amino}methyl)phenyl]ethan-1-one] yielded an IC50 of 110 nM.

Molecule `CCc1nc(N)nc(N)c1-c1ccc(NCc2ccc(C#N)cc2)cc1` [4-({[4-(2,4-diamino-6-ethylpyrimidin-5-yl)phenyl]amino}methyl)benzonitrile] showed an IC50 of 780 nM.

For the molecule `N#Cc1ccc(CNc2ccc(-c3c(N)nc(N)nc3COCc3ccccc3)cc2)cc1` [4-{[(4-{2,4-diamino-6-[(benzyloxy)methyl]pyrimidin-5-yl}phenyl)amino]methyl}benzonitrile], the IC50 worked out at 19 nM.

On to `CCc1nc(N)nc(N)c1-c1ccc(NCc2ccnc(Cl)c2)cc1` [5-(4-{[(2-chloropyridin-4-yl)methyl]amino}phenyl)-6-ethylpyrimidine-2,4-diamine], for which the IC50 was determined as 220 nM.

On to `CCc1nc(N)nc(N)c1-c1ccc(NCc2cc(F)c(S(C)(=O)=O)c(F)c2)cc1` [5-(4-{[(3,5-difluoro-4-methanesulfonylphenyl)methyl]amino}phenyl)-6-ethylpyrimidine-2,4-diamine], for which the IC50 was 45 nM.

For `CCc1nc(N)nc(N)c1-c1ccc(NCc2ccc(Cl)cc2)cc1` [5-(4-{[(4-chlorophenyl)methyl]amino}phenyl)-6-ethylpyrimidine-2,4-diamine], the IC50 is 1380 nM.

`CCc1nc(N)nc(N)c1-c1ccc(NCc2csc(Cl)c2)cc1` [5-(4-{[(5-chlorothiophen-3-yl)methyl]amino}phenyl)-6-ethylpyrimidine-2,4-diamine] showed an IC50 of 790 nM.

Molecule `Nc1nc(N)c(-c2ccc(NCc3ccnc(Cl)c3)cc2)c(COCc2ccccc2)n1` [6-[(benzyloxy)methyl]-5-(4-{[(2-chloropyridin-4-yl)methyl]amino}phenyl)pyrimidine-2,4-diamine] registered an IC50 of 3.6 nM.

As to `Nc1nc(N)c(-c2ccc(NCc3ccc(Cl)cc3)cc2)c(COCc2ccccc2)n1` [6-[(benzyloxy)methyl]-5-(4-{[(4-chlorophenyl)methyl]amino}phenyl)pyrimidine-2,4-diamine], the IC50 amounted to 180 nM.

Consider `Nc1nc(N)c(-c2ccc(NCc3ccc([N+](=O)[O-])cc3)cc2)c(COCc2ccccc2)n1` [6-[(benzyloxy)methyl]-5-(4-{[(4-nitrophenyl)methyl]amino}phenyl)pyrimidine-2,4-diamine], for which the IC50 stood at 5.8 nM.

`Nc1nc(N)c(-c2ccc(NCc3ccc(S(=O)(=O)C(F)(F)F)cc3)cc2)c(COCc2ccccc2)n1` [6-[(benzyloxy)methyl]-5-[4-({[4-(trifluoromethane)sulfonylphenyl]methyl}amino)phenyl]pyrimidine-2,4-diamine] came in with a concentration for half-maximal inhibition (IC50) of 85 nM.

`Nc1nc(N)c(-c2ccc(NCc3ccc(C(F)(F)F)cc3)cc2)c(COCc2ccccc2)n1` [6-[(benzyloxy)methyl]-5-[4-({[4-(trifluoromethyl)phenyl]methyl}amino)phenyl]pyrimidine-2,4-diamine] yielded an IC50 of 97 nM.

`CCc1nc(N)nc(N)c1-c1ccc(NCc2ccc(S(C)(=O)=O)cc2)cc1` [6-ethyl-5-(4-{[(4-methanesulfonylphenyl)methyl]amino}phenyl)pyrimidine-2,4-diamine]: the IC50 amounted to 12 nM.

In turn, `CCc1nc(N)nc(N)c1-c1ccc(NCc2ccc([N+](=O)[O-])cc2)cc1` [6-ethyl-5-(4-{[(4-nitrophenyl)methyl]amino}phenyl)pyrimidine-2,4-diamine] came in with a half-maximal inhibitory concentration (IC50) of 23 nM.

Regarding `CCc1nc(N)nc(N)c1-c1ccc(NCc2ccc(S(=O)(=O)C(F)(F)F)cc2)cc1` [6-ethyl-5-[4-({[4-(trifluoromethane)sulfonylphenyl]methyl}amino)phenyl]pyrimidine-2,4-diamine], the IC50 was determined as 690 nM.

The test is the same for the next values; noted with them: pH 7.4; 22 °C; read-out: IC50.
`Nc1nc(N)c(-c2ccc(NCc3ccc(S(=O)(=O)C(F)(F)F)cc3)cc2)c(COCc2ccccc2)n1` [6-[(benzyloxy)methyl]-5-[4-({[4-(trifluoromethane)sulfonylphenyl]methyl}amino)phenyl]pyrimidine-2,4-diamine]: the IC50 worked out at 1 nM.

Consider `CCc1nc(N)nc(N)c1-c1ccc(NCc2ccc(S(=O)(=O)C(F)(F)F)cc2)cc1` [6-ethyl-5-[4-({[4-(trifluoromethane)sulfonylphenyl]methyl}amino)phenyl]pyrimidine-2,4-diamine], for which the IC50 was found to be 21 nM.
